ChEMBL document CHEMBL1201862, “PubChem BioAssay data set” (2004)
Structures can show the parent of a compound that is named as a salt.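 Briefly, cells in 96-well plates were exposed to five compound concentrations for 48 h, and endpoints were estimated by linear interpolation. Here, GI50 denotes the concentration required for 50% inhibition of growth.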 The source made the active and inactive calls. Rule as the data show it: active = GI50 up to about 1.1 µM and inactive = higher.

How the values were obtained:
Assay in all cases: DTP human tumour cell line panel, 48 h
[1] = system: ACHN
[2] = system: MOLT-4
[3] = system: HCC 2998
[4] = system: NCI-H226
[5] = system: LOX IMVI
[6] = system: OVCAR-3
[7] = system: K562
[8] = system: U-251
[9] = system: 786-0
[10] = system: UACC-257
[11] = system: RPMI-8226
[12] = system: KM12
[13] = system: HT-29
[14] = system: SNB-75
[15] = system: EKVX
[16] = system: SK-OV-3
[17] = system: IGROV-1
[18] = system: NCI-H460
[19] = system: COLO 205

SMILES	GI50 [1]	GI50 [2]	GI50 [3]	GI50 [4]	GI50 [5]	GI50 [6]	GI50 [7]	GI50 [8]	GI50 [9]	GI50 [10]	GI50 [11]	GI50 [12]	GI50 [13]	GI50 [14]	GI50 [15]	GI50 [16]	GI50 [17]	GI50 [18]	GI50 [19]
O=C(OCc1nc2ccc(Br)cc2c(=O)n1-c1ccccc1)c1ccccc1O	70.5 µM (inactive)	37.9 µM (inactive)	> 100 µM (inactive)	57.5 µM (inactive)	> 100 µM (inactive)	2.32 µM (inactive)	54.7 µM (inactive)	> 100 µM (inactive)	74.8 µM (inactive)	61.5 µM (inactive)	29.4 µM (inactive)	> 100 µM (inactive)	84.9 µM (inactive)	28.4 µM (inactive)	66.1 µM (inactive)	> 100 µM (inactive)	> 100 µM (inactive)	> 100 µM (inactive)	> 100 µM (inactive)
N#Cc1c(-c2ccco2)cc(-c2ccc(NCc3nc4ccccc4[nH]3)cc2)nc1N	26.5 µM (inactive)	15.3 µM (inactive)	21.8 µM (inactive)	–	18.7 µM (inactive)	20.1 µM (inactive)	24.3 µM (inactive)	25.9 µM (inactive)	28.6 µM (inactive)	–	19.2 µM (inactive)	18.7 µM (inactive)	32.6 µM (inactive)	26.4 µM (inactive)	–	50.5 µM (inactive)	23 µM (inactive)	18.1 µM (inactive)	21.6 µM (inactive)
CC1(C)C(/C=N\O)=[N+]([O-])C(C)(C)N1O	> 100 µM (inactive)	–	> 100 µM (inactive)	> 100 µM (inactive)	> 100 µM (inactive)	49.7 µM (inactive)	> 100 µM (inactive)	> 100 µM (inactive)	> 100 µM (inactive)	> 100 µM (inactive)	> 100 µM (inactive)	> 100 µM (inactive)	54.3 µM (inactive)	> 100 µM (inactive)	> 100 µM (inactive)	> 100 µM (inactive)	> 100 µM (inactive)	> 100 µM (inactive)	> 100 µM (inactive)
COC(=O)c1nc(C(=O)OC)c2c([nH]c3ccccc32)c1C(=O)OC	–	82.6 µM (inactive)	> 100 µM (inactive)	37.7 µM (inactive)	58.5 µM (inactive)	> 100 µM (inactive)	–	99.8 µM (inactive)	> 100 µM (inactive)	> 100 µM (inactive)	–	> 100 µM (inactive)	> 100 µM (inactive)	41.5 µM (inactive)	–	–	> 100 µM (inactive)	46.1 µM (inactive)	> 100 µM (inactive)
Nc1nc(N)c2ncn(CC3CCC(CO)C3)c2n1 (stereo not given)	> 100 µM (inactive)	> 100 µM (inactive)	> 100 µM (inactive)	> 100 µM (inactive)	> 100 µM (inactive)	> 100 µM (inactive)	> 100 µM (inactive)	> 100 µM (inactive)	> 100 µM (inactive)	> 100 µM (inactive)	> 100 µM (inactive)	> 100 µM (inactive)	–	> 100 µM (inactive)	> 100 µM (inactive)	> 100 µM (inactive)	–	–	> 100 µM (inactive)
COc1ccc2cc1Oc1ccc(cc1)CC1c3cc4c(cc3CCN1C)Oc1c(OC)cc3c(c1O4)C(C2)N(C)CC3 (stereo not given)	4.78 µM (inactive)	1.44 µM (inactive)	3.05 µM (inactive)	1.72 µM (inactive)	1.46 µM (inactive)	5.81 µM (inactive)	1.75 µM (inactive)	2.26 µM (inactive)	7.66 µM (inactive)	–	–	2.11 µM (inactive)	1.81 µM (inactive)	2.56 µM (inactive)	9.79 µM (inactive)	–	> 10 µM (inactive)	1.76 µM (inactive)	1.43 µM (inactive)
C/C=C/C=C/[C@H]1Cc2cc(O)cc(O)c2O1	52.5 µM (inactive)	31.8 µM (inactive)	–	–	47.9 µM (inactive)	33 µM (inactive)	37.2 µM (inactive)	59.2 µM (inactive)	> 100 µM (inactive)	28.4 µM (inactive)	–	61 µM (inactive)	72.4 µM (inactive)	> 100 µM (inactive)	55.5 µM (inactive)	> 100 µM (inactive)	> 100 µM (inactive)	44.1 µM (inactive)	55 µM (inactive)
CCOc1ccc(NCC2CC/C(=C\c3ccccc3OC)C2=O)cc1 (stereo not given)	14.6 µM (inactive)	2.75 µM (inactive)	12.8 µM (inactive)	18.6 µM (inactive)	6.61 µM (inactive)	6.37 µM (inactive)	2.7 µM (inactive)	14.3 µM (inactive)	3.01 µM (inactive)	7.38 µM (inactive)	0.92 µM (active)	2.99 µM (inactive)	3.3 µM (inactive)	14.6 µM (inactive)	17.4 µM (inactive)	17 µM (inactive)	10.6 µM (inactive)	–	2.29 µM (inactive)
NCCS [CYSTEAMINE HYDROCHLORIDE]	> 100 µM (inactive)	> 100 µM (inactive)	> 100 µM (inactive)	> 100 µM (inactive)	> 100 µM (inactive)	> 100 µM (inactive)	> 100 µM (inactive)	> 100 µM (inactive)	> 100 µM (inactive)	> 100 µM (inactive)	> 100 µM (inactive)	> 100 µM (inactive)	> 100 µM (inactive)	> 100 µM (inactive)	> 100 µM (inactive)	–	> 100 µM (inactive)	> 100 µM (inactive)	> 100 µM (inactive)
COc1ccc2[nH]c3c(c2c1)[C@H](C)C[C@@H]1C(=O)N(c2ccccc2)C(=O)[C@H]31	37.8 µM (inactive)	20.6 µM (inactive)	39.4 µM (inactive)	–	25.2 µM (inactive)	24 µM (inactive)	46 µM (inactive)	15.5 µM (inactive)	22.8 µM (inactive)	56.1 µM (inactive)	–	17.8 µM (inactive)	–	21.4 µM (inactive)	23.9 µM (inactive)	20.5 µM (inactive)	31.8 µM (inactive)	26.2 µM (inactive)	51.3 µM (inactive)
O=C(O)c1ccccc1[Se][Se]c1ccccc1C(=O)O	> 100 µM (inactive)	43.8 µM (inactive)	89.7 µM (inactive)	1.9 µM (inactive)	24.1 µM (inactive)	51.1 µM (inactive)	> 100 µM (inactive)	40.8 µM (inactive)	75.2 µM (inactive)	49.5 µM (inactive)	66.2 µM (inactive)	26.8 µM (inactive)	35.1 µM (inactive)	29.5 µM (inactive)	–	85.5 µM (inactive)	51.6 µM (inactive)	30.8 µM (inactive)	> 100 µM (inactive)
Cc1ccc(C(=O)/C=C/N2CCN(c3cccc(C(F)(F)F)c3)CC2)cc1	23.9 µM (inactive)	15.1 µM (inactive)	12.4 µM (inactive)	16.9 µM (inactive)	–	14.4 µM (inactive)	18.7 µM (inactive)	16.8 µM (inactive)	18.2 µM (inactive)	16.4 µM (inactive)	31.9 µM (inactive)	18.7 µM (inactive)	17.9 µM (inactive)	16.9 µM (inactive)	18.7 µM (inactive)	35.1 µM (inactive)	16.3 µM (inactive)	21.7 µM (inactive)	24.3 µM (inactive)
CC(C)CS(=O)(=O)/C(=C(\c1ccc(Br)cc1)S(=O)(=O)CC(C)C)c1ccc(Br)cc1	> 100 µM (inactive)	> 100 µM (inactive)	> 100 µM (inactive)	> 100 µM (inactive)	> 100 µM (inactive)	> 100 µM (inactive)	> 100 µM (inactive)	> 100 µM (inactive)	> 100 µM (inactive)	> 100 µM (inactive)	> 100 µM (inactive)	> 100 µM (inactive)	> 100 µM (inactive)	38.3 µM (inactive)	> 100 µM (inactive)	–	15.6 µM (inactive)	> 100 µM (inactive)	> 100 µM (inactive)
COc1ccc(/C=C2\CCC(CCN(C)C)(C3=CCCC3)C2=O)cc1Br (stereo not given)	9.29 µM (inactive)	2.7 µM (inactive)	2.33 µM (inactive)	16.9 µM (inactive)	4.06 µM (inactive)	5.74 µM (inactive)	2.58 µM (inactive)	5.82 µM (inactive)	3.78 µM (inactive)	2.43 µM (inactive)	2.17 µM (inactive)	3.73 µM (inactive)	2.59 µM (inactive)	4.49 µM (inactive)	0.0306 µM (active)	–	4.54 µM (inactive)	10.1 µM (inactive)	1.58 µM (inactive)
O=C(/C=C/c1ccsc1)c1ccc(Cl)cc1	> 100 µM (inactive)	19.2 µM (inactive)	> 100 µM (inactive)	52 µM (inactive)	25.5 µM (inactive)	–	20.6 µM (inactive)	66.4 µM (inactive)	89.5 µM (inactive)	> 100 µM (inactive)	21 µM (inactive)	35.3 µM (inactive)	36.5 µM (inactive)	> 100 µM (inactive)	97.7 µM (inactive)	> 100 µM (inactive)	> 100 µM (inactive)	> 100 µM (inactive)	> 100 µM (inactive)
CCOC(=O)C(NC(=O)CC(C)C)(Nc1ccc(C(F)(F)F)cc1)C(F)(F)F (stereo not given)	14.5 µM (inactive)	23 µM (inactive)	32.8 µM (inactive)	> 100 µM (inactive)	84.5 µM (inactive)	13.4 µM (inactive)	23.9 µM (inactive)	28 µM (inactive)	82.4 µM (inactive)	44.3 µM (inactive)	16.7 µM (inactive)	14.7 µM (inactive)	21 µM (inactive)	6.31 µM (inactive)	> 100 µM (inactive)	> 100 µM (inactive)	22.2 µM (inactive)	26.4 µM (inactive)	–
